Reference: PubChem BioAssay AID651770 (Broad Institute, 2012)
“And” between values parts separate entries of the source, which are not always exact repeats. Identical values can stand only once. Results filed as inconclusive are left out. The source made the active and inactive calls.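 How the source made its calls: active means fitted dose curve reaches a 40% decrease at a concentration up to twice the top valid dose; inconclusive means flat curve showing 30 to 70% expression rise, or poor fit; inactive means the rest.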

Tested on: not listed separately
Assay: TRPM1 transcript decrease in melanoma cells – cell-based, SK-MEL-5, RT-qPCR, dry powder samples, orthogonal assay for MITF inhibitor project, dose response (AID 651770)
Details: SK-MEL-5, TRPM1 mRNA qPCR (delta-delta-Ct), overnight; at 35 µM (top of the series)

Q: For `COc1ccc(NC2=C(N3CCCCC3)C(=O)c3ccccc3C2=O)cc1`, which TRPM1 expression decrease is on record?
A: 78% (inactive)

Tested on: SK-MEL-5, TRPM1 mRNA qPCR (delta-delta-Ct), overnight
Assay: as above
Details: not given

Q: With `O=C1C(NS(=O)(=O)c2cccs2)=C(c2ccccc2)C(=O)c2ccccc21` as the molecule, how does the AC40 read?
A: 1680 nM

Q: Which AC40 does the source give for `CC(C)N1CCN(C2=C(Nc3ccc(F)cc3)C(=O)c3ccccc3C2=O)CC1` here?
A: 4910 nM

Q: Which AC40 does the source give for `O=C1C=C(Nc2ccc([N+](=O)[O-])c(C(F)(F)F)c2)C(=O)c2ccccc21` here?
A: 302 nM

Q: For `CCN1CCN(C2=C(Nc3ccc(F)cc3F)C(=O)c3ccccc3C2=O)CC1`, which AC40 is on record?
A: 3190 nM

Q: With `NC1=C(NS(=O)(=O)c2ccc(Br)cc2)C(=O)c2ccccc2C1=O` as the molecule, how does the AC40 read?
A: 4090 nM

Q: For `COC1=C(Nc2ccccc2)C(=O)c2ccccc2C1=O`, which AC40 is on record?
A: 336 nM

Q: For `O=C1C=C(NS(=O)(=O)c2ccc(Br)cc2)C(=O)c2ccccc21`, which AC40 is on record?
A: 850 nM

Q: For `CN1CCN(C2=C(Nc3ccc(F)cc3F)C(=O)c3ccccc3C2=O)CC1`, which AC40 is on record?
A: 1150 nM

Q: With `O=C(NC1=C(Cl)C(=O)c2ccccc2C1=O)c1ccccc1` as the molecule, how does the AC40 read?
A: 164 nM

Q: For `O=C1C=C(NS(=O)(=O)c2ccccc2)C(=O)c2ccccc21`, which AC40 is on record?
A: 193 nM

Q: Which AC40 does the source give for `COC1=C(NS(=O)(=O)c2ccccc2)C(=O)c2ccccc2C1=O` here?
A: 3980 nM

Q: For `NC1=C(NS(=O)(=O)c2ccc(Br)s2)C(=O)c2ccccc2C1=O`, which AC40 is on record?
A: 5240 nM

Q: With `NC1=CC(=O)c2ccccc2C1=O` as the molecule, how does the AC40 read?
A: 3410 nM

Q: For `COC1=C(NS(=O)(=O)c2cccs2)C(=O)c2ccccc2C1=O`, which AC40 is on record?
A: 4390 nM

Q: With `O=C1C(Nc2ccc(Cl)cc2)=C(N2CCCC2)C(=O)c2ccccc21` as the molecule, how does the AC40 read?
A: 10300 nM

Q: Which AC40 does the source give for `O=C1C(Nc2ccccc2)=C(c2ccccc2)C(=O)c2ccccc21` here?
A: 8180 nM

Q: Which AC40 does the source give for `NC1=C(NS(=O)(=O)c2ccccc2)C(=O)c2ccccc2C1=O` here?
A: 1850 nM

Q: Which AC40 does the source give for `CC(C)N1CCN(C2=C(Nc3ccc(F)cc3F)C(=O)c3ccccc3C2=O)CC1` here?
A: 2020 nM

Q: With `NC1=C(NS(=O)(=O)c2cccs2)C(=O)c2ccccc2C1=O` as the molecule, how does the AC40 read?
A: 987 nM

Q: Which AC40 does the source give for `COC1=C(NS(=O)(=O)c2ccc(Br)cc2)C(=O)c2ccccc2C1=O` here?
A: 4440 nM

Q: For `CCN1CCN(C2=C(NC(=O)c3ccccc3)C(=O)c3ccccc3C2=O)CC1`, which AC40 is on record?
A: 1160 nM

Q: For `O=C1C=C(Nc2ccccc2)C(=O)c2ccccc21`, which AC40 is on record?
A: 740 nM and 323 nM

Q: With `NC1=C(NC(=O)c2ccccc2)C(=O)c2ccccc2C1=O` as the molecule, how does the AC40 read?
A: 722 nM

Q: Which AC40 does the source give for `NS(=O)(=O)c1ccc(NC2=CC(=O)c3ccccc3C2=O)cc1` here?
A: 163 nM

Q: With `CN1CCN(C2=C(NS(=O)(=O)c3ccc(Br)s3)C(=O)c3ccccc3C2=O)CC1` as the molecule, how does the AC40 read?
A: 1130 nM

Q: For `O=C1C=C(NS(=O)(=O)c2cccs2)C(=O)c2ccccc21`, which AC40 is on record?
A: 333 nM

Q: Which AC40 does the source give for `CCN1CCN(C2=C(NS(=O)(=O)c3ccc(Br)cc3)C(=O)c3ccccc3C2=O)CC1` here?
A: 4930 nM

Q: With `C=CCNC1=C(Cl)C(=O)c2ccccc2C1=O` as the molecule, how does the AC40 read?
A: 943 nM
